Results as given in patent EP4647082A1, “PHARMACEUTICAL COMPOSITION COMPRISING A CGRP RECEPTOR ANTAGONIST FOR THE TREATMENT OF ACUTE MIGRAINE” (NUVIE BIO, Inc., priority 2024, dated 2025).
Read-outs that look alike come from different tables or passages of the source. Bridge positions count the residues as written; N and C are the ends. Square brackets hold non-standard residues; d marks the D form. Peptide text beside a SMILES is read from it. * marks the point of attachment. Phe(2-CONH2) = NC(=O)c1ccccc1C[C@H](N)C(=O)O; Orn(iPr) = CC(C)NCCC[C@H](N)C(=O)O; Oxazole2carbonyl = O=C(c1ncco1)*; 3Pal = N[C@@H](Cc1cccnc1)C(=O)O

What was measured:
Solubility of AXN-001 = assay type: physicochemical; conditions: neutral pH
[1] = Phase I first-in-human study, pharmacokinetics after single ascending subcutaneous doses in healthy volunteers; assay type: in vivo; conditions: for AUC(0-inf) / AUC(0-t) / CL/F / Cmax / Tmax / half-life / level at 1 h / level at 2 h / level at 3 h / level at 0.08 h / level at 0.17 h / level at 0.25 h / level at 0.33 h / level at 0.5 h / level at 0.75 h / level at 4 h / level at 6 h / level at 8 h: human, plasma, mean; for level at 1 h: nominal time 1 h; for level at 1 h / level at 2 h / level at 3 h / level at 0.08 h / level at 0.17 h / level at 0.25 h / level at 0.33 h / level at 0.5 h / level at 0.75 h / level at 4 h / level at 6 h / level at 8 h: read-out: Plasma Concentration AXN-001; for level at 2 h: nominal time 2 h; for level at 3 h: nominal time 3 h; for level at 0.08 h: nominal time 0.08 h; for level at 0.17 h: nominal time 0.17 h; for level at 0.25 h: nominal time 0.25 h; for level at 0.33 h: nominal time 0.33 h; for level at 0.5 h: nominal time 0.50 h; for level at 0.75 h: nominal time 0.75 h; for level at 4 h: nominal time 4 h; for level at 6 h: nominal time 6 h; for level at 8 h: nominal time 8 h
Protocol: For Phase I clinical studies, the 32 mg/mL pharmaceutical composition was dosed subcutaneously. The Phase I clinical trial was a randomised, double-blind, placebo-controlled, first-in-human study of the safety, tolerability and pharmacokinetics of AXN-001 in healthy volunteers under Protocol No. AXN-001-01 .
The pharmacokinetic objective of the clinical trial was to provide pharmacokinetic analysis of AXN-001 following single ascending subcutaneous doses of AXN-001. The study design included the following Cohorts: • Cohort 1: Dose 1 mg (2 mg/mL formulation); • Cohort 2: Dose 2 mg (4 mg/mL formulation); • Cohort 3: Dose 4 mg (8 mg/mL formulation); • Cohort 4: Dose 8 mg (16 mg/mL formulation); • Cohort 5: Dose 16 mg (32 mg/mL formulation).
Participants were administered a single dose (0.5 mL) of AXN-001 or placebo via subcutaneous (SC) injection into the abdomen. Blood samples were collected at specified time points for pharmacokinetic analysis (5,10,15,20,30,45,60 minutes; 2,3,4,6,8,12,24 hours). Individual plasma concentrations of ANX-001 were determined and used for analyses.
Pharmacokinetic (PK) parameters of AXN-001 were determined using Phoenix WinNonlin version 8.3. All concentrations below the limit of quantification (BLQ) were set to zero for the purpose of the PK analysis. All AUC determinations were made using linear trapezoidal method. The following parameters were determined: Cmax Maximum observed concentration. as read directly from the observed data. Tmax Time to maximum concentration T10nM Time to 10 nM T30nM Time to 30 nM T100nM Time to 100 nM AUC0-t Area under the concentration-time curve from time zero to the time of the last measurable concentration, calculated using linear trapezoidal rule AUC0-inf Area under the concentration-time curve from time zero to infinity, calculated using linear trapezoidal rule %AUCextrap The portion of AUC determined by extrapolation t1/2 Apparent terminal elimination half-life CL/F or CL Total apparent body clearance Vz/F or Vz Apparent volume of distribution λz Terminal elimination rate constant

solubility (Solubility of AXN-001): low
subjects who achieved plasma concentrations of 30nM ([1]; 1 mg cohort): 1 of 6
subjects who achieved plasma concentrations of 30nM ([1]; 2 mg cohort): 5 of 6
subjects who achieved 100nM plasma concentrations ([1]; 4 mg cohort): 2/5
subjects who achieved plasma concentrations of 30nM ([1]; 4, 8, and 16 mg cohort): All subjects
subjects who achieved 100nM plasma concentrations ([1]; 8 and 16 mg cohorts): All subjects
time to achieve plasma concentrations of 10nM AXN-001 ([1]; all subjects at all doses (1-16 mg SC)): less than 15 minutes
AUC(0-inf) ([1]; single SC dose 1 mg): 101 ng·h/mL
AUC(0-t) ([1]; single SC dose 1 mg): 96.1 ng·h/mL
CL/F ([1]; single SC dose 1 mg): 167 mL/min
Cmax ([1]; single SC dose 1 mg): 39.5 ng/mL
Tmax ([1]; single SC dose 1 mg): 0.792 h
half-life ([1]; single SC dose 1 mg): 1.31 h
level at 1 h ([1]; single SC dose 1 mg): 35.1 ng/mL
level at 2 h ([1]; single SC dose 1 mg): 22.8 ng/mL
level at 3 h ([1]; single SC dose 1 mg): 13.7 ng/mL
AUC(0-inf) ([1]; single SC dose 2 mg): 167 ng·h/mL
AUC(0-t) ([1]; single SC dose 2 mg): 159 ng·h/mL
CL/F ([1]; single SC dose 2 mg): 210 mL/min
Cmax ([1]; single SC dose 2 mg): 65 ng/mL
Tmax ([1]; single SC dose 2 mg): 0.792 h
half-life ([1]; single SC dose 2 mg): 1.35 h
level at 0.08 h ([1]; single SC dose 2 mg): 11.3 ng/mL
level at 0.17 h ([1]; single SC dose 2 mg): 21.6 ng/mL
level at 0.25 h ([1]; single SC dose 2 mg): 31.5 ng/mL
level at 0.33 h ([1]; single SC dose 2 mg): 40.4 ng/mL
level at 0.5 h ([1]; single SC dose 2 mg): 55.7 ng/mL
level at 0.75 h ([1]; single SC dose 2 mg): 62.6 ng/mL
level at 1 h ([1]; single SC dose 2 mg): 60.2 ng/mL
level at 2 h ([1]; single SC dose 2 mg): 38.1 ng/mL
level at 3 h ([1]; single SC dose 2 mg): 21.3 ng/mL
level at 4 h ([1]; single SC dose 2 mg): 11.4 ng/mL
level at 6 h ([1]; single SC dose 2 mg): 4.79 ng/mL
level at 8 h ([1]; single SC dose 2 mg): 0.713 ng/mL
AUC(0-inf) ([1]; single SC dose 4 mg): 343 ng·h/mL
AUC(0-t) ([1]; single SC dose 4 mg): 337 ng·h/mL
CL/F ([1]; single SC dose 4 mg): 197 mL/min
Cmax ([1]; single SC dose 4 mg): 133 ng/mL
Tmax ([1]; single SC dose 4 mg): 0.7 h
half-life ([1]; single SC dose 4 mg): 1.36 h
level at 0.08 h ([1]; single SC dose 4 mg): 9.6 ng/mL
level at 0.17 h ([1]; single SC dose 4 mg): 35.3 ng/mL
level at 0.25 h ([1]; single SC dose 4 mg): 71.4 ng/mL
level at 0.33 h ([1]; single SC dose 4 mg): 87.8 ng/mL
level at 0.5 h ([1]; single SC dose 4 mg): 115 ng/mL
level at 0.75 h ([1]; single SC dose 4 mg): 123 ng/mL
level at 1 h ([1]; single SC dose 4 mg): 134 ng/mL
level at 2 h ([1]; single SC dose 4 mg): 82.5 ng/mL
level at 3 h ([1]; single SC dose 4 mg): 44.7 ng/mL
level at 4 h ([1]; single SC dose 4 mg): 23.5 ng/mL
level at 6 h ([1]; single SC dose 4 mg): 8.25 ng/mL
level at 8 h ([1]; single SC dose 4 mg): 3.09 ng/mL
AUC(0-inf) ([1]; single SC dose 8 mg): 594 ng·h/mL
AUC(0-t) ([1]; single SC dose 8 mg): 585 ng·h/mL
CL/F ([1]; single SC dose 8 mg): 225 mL/min
Cmax ([1]; single SC dose 8 mg): 244 ng/mL
Tmax ([1]; single SC dose 8 mg): 0.75 h
half-life ([1]; single SC dose 8 mg): 1.47 h
level at 0.08 h ([1]; single SC dose 8 mg): 32.1 ng/mL
level at 0.17 h ([1]; single SC dose 8 mg): 84 ng/mL
level at 0.25 h ([1]; single SC dose 8 mg): 118 ng/mL
level at 0.33 h ([1]; single SC dose 8 mg): 144 ng/mL
level at 0.5 h ([1]; single SC dose 8 mg): 199 ng/mL
level at 0.75 h ([1]; single SC dose 8 mg): 240 ng/mL
level at 1 h ([1]; single SC dose 8 mg): 226 ng/mL
SMILES: CC(C)NCCC[C@@H]1NC(=O)[C@@H](NC(=O)[C@H](Cc2ccccc2C(N)=O)NC(=O)[C@H](NC(=O)c2ncco2)C(C)C)CSSC[C@@H](C(=O)N[C@@H](Cc2cccnc2)C(N)=O)NC(=O)[C@H](Cc2ccccc2)NC(=O)[C@@H]2CCCN2C(=O)CNC(=O)[C@H](C(C)C)NC(=O)[C@H](CC(=O)O)NC1=O [AXN-001, Oxazole-2-carbonyl-D-Val-Phe(2-Cbm)-c(Cys-Orn (iPr)-Asp-Val-Gly-Pro-Phe-Cys)-3Pal-NH2] (Oxazole2carbonyl-[dV][Phe(2-CONH2)]C[Orn(iPr)]DVGPFC[3Pal]-NH2; disulfide 3-10)
